Data published in patent publication US8604034B2, “Substituted imidazo[1,2-α]pyrrolo[1,2-d]pyrazines for treating respiratory syncytial virus (RSV) infections” (Biota Scientific Management Pty Ltd., priority 2010, dated 2013).
Like-named read-outs stand apart in the source and are kept apart here. One block for each molecule: values may come before it.

Test system: RSV A2
Assay: RSV antiviral cytopathic effect (CPE) assay
Format: cell-based
Conditions: human respiratory syncytial virus, HEp-2, 120 h, HEp2 cells infected with RSV A2 (moi ~0.01), 5 days, MTT readout
Experimental: Compounds of the invention were tested for their antiviral activity against respiratory syncytial virus. Cytopathic effect (CPE) assays were performed essentially as described in the literature (see for example Watanabe et al, 1994, J. Virological Methods, 48:257). Serial dilutions of the test compounds were made in 96 well plates. HEp2 cells (1.0×10^4 cells/well) were infected with RSV at a low multiplicity of infection (e.g. RSV A2 at an moi of ˜0.01) and added to plates to assess antiviral activity. Uninfected HEp2 cells were used to assess compound cytotoxicity. Assays were incubated for 5 days at 37° C. in a 5% CO2 atmosphere. The extent of CPE was determined via metabolism of the vital dye 3-(4,5-dimethylthiaxol-2-yl)-2,5-diphenyltetrazolium bromide (MTT). MTT (1 mg/ml) was added to each well and plates incubated for 2 hours incubation at 37° C. Wells were aspirated, iso-propanol (200 μL) was added and absorbance values read at 540/650 nm. Compound concentrations that inhibited CPE by 50% (EC50) and developed cytotoxicity (CC50) were calculated using non-linear regression analysis.
Representative mean EC50 values obtained are also provided. In the inventors' experience, replicate EC50 values usually fall within three standard deviations of the mean.

[1] = read-out: Activity Range (RSV A2 EC50)
[2] = mean EC50, read-out: RSV A2 EC50

Structure (SMILES): COc1ccc(C23Cn4cccc4C(=O)N2CCN3C(=O)c2cocn2)cc1 (centres unmarked) [Compound 8]
EC50 [1]: 500 to 10000 nM
EC50 [2]: 1800 nM

Structure (SMILES): CCN(CC)S(=O)(=O)c1ccc(C23Cn4cccc4C(=O)N2CCN3C(=O)c2conc2C)cc1 (centres unmarked) [Compound 10]
EC50 [1]: > 10000 nM

Structure (SMILES): Cc1nocc1C(=O)N1CCN2C(=O)c3c(C)ncn3CC12c1ccc(Cl)cc1 (centres unmarked) [Compound 12]
EC50 [1]: 500 to 10000 nM
EC50 [2]: 7500 nM

Structure (SMILES): Cc1nocc1C(=O)N1CCN2C(=O)c3cncn3CC12c1ccc(Cl)cc1 (centres unmarked) [Compound 13]
EC50 [1]: 500 to 10000 nM
EC50 [2]: 1200 nM

Structure (SMILES): O=C(c1ccon1)N1CCN2C(=O)c3cccn3CC12c1ccc(Cl)cc1 (centres unmarked) [Compound 16]
EC50 [1]: 500 to 10000 nM
EC50 [2]: 980 nM

Structure (SMILES): Cn1cc(C(=O)N2CCN3C(=O)c4cccn4CC23c2ccc(Cl)cc2)c(C(F)(F)F)n1 (centres unmarked) [Compound 17]
EC50 [1]: 500 to 10000 nM
EC50 [2]: 860 nM

Structure (SMILES): O=C1c2cccn2CC2(c3ccc(Cl)cc3)N1CCN2C(=O)C1CC1 (centres unmarked) [Compound 18]
EC50 [1]: 500 to 10000 nM
EC50 [2]: 4100 nM

Structure (SMILES): CCC12Cn3cccc3C(=O)N1CCN2C(=O)c1conc1C (centres unmarked) [Compound 20]
EC50 [1]: 500 to 10000 nM
EC50 [2]: 6700 nM

Structure (SMILES): Cc1nocc1C(=O)N1CCN2C(=O)c3cccn3CC12C(C)(C)C (centres unmarked) [Compound 21]
EC50 [1]: > 10000 nM

Structure (SMILES): CC(=O)c1cc2n(c1)CC1(c3ccc(Cl)cc3)N(C(=O)c3cnoc3C)CCN1C2=O (centres unmarked) [Compound 24, 7-acetyl-10a-(4-chlorophenyl)-1-[(5-methyl-1,2-oxazol-4-yl)carbonyl]-2,3,10,10a-tetrahydro-1H,5H-imidazo[1,2-a]pyrrolo[1,2-d]pyrazin-5-one]
EC50 [1]: > 10000 nM

Structure (SMILES): Cc1nocc1C(=O)N1CCN2C(=O)c3cc(CN4CCOCC4)cn3CC12c1ccc(Cl)cc1 (centres unmarked) [Compound 26]
EC50 [1]: > 10000 nM

Structure (SMILES): Cc1nocc1C(=O)N1CCN2C(=O)c3cc(CN(C)C)cn3CC12c1ccc(Cl)cc1 (centres unmarked) [Compound 27]
EC50 [1]: 500 to 10000 nM
EC50 [2]: 9500 nM

Structure (SMILES): Cc1nocc1C(=O)N1CCN2C(=O)c3cc(CO)cn3CC12c1ccc(Cl)cc1 (centres unmarked) [Compound 29]
EC50 [1]: 500 to 10000 nM
EC50 [2]: 1000 nM

Structure (SMILES): Cc1oncc1C(=O)N1CCN2C(=O)c3ccc(-c4ccncc4)n3CC12c1ccc(Cl)cc1 (centres unmarked) [Compound 32, 10a-(4-chlorophenyl)-1-[(5-methyl-1,2-oxazol-4-yl)carbonyl]-8-(pyridin-4-yl)-2,3,10,10a-tetrahydro-1H,5H-imidazo[1,2-a]pyrrolo[1,2-d]pyrazin-5-one]
EC50 [1]: 500 to 10000 nM
EC50 [2]: 690 nM

Structure (SMILES): Cc1nocc1C(=O)N1CCN2C(=O)c3ccc(-c4cccnc4)n3CC12c1ccc(Cl)cc1 (centres unmarked) [Compound 33]
EC50 [1]: 500 to 10000 nM
EC50 [2]: 3100 nM

Structure (SMILES): Cc1nocc1C(=O)N1CCN2C(=O)c3cc(C(=O)N(C)C)cn3CC12c1ccc(Cl)cc1 (centres unmarked) [Compound 38, 10a-(4-chlorophenyl)-N,N-dimethyl-1-[(3-methyl-1,2-oxazol-4-yl)carbonyl]-5-oxo-2,3,10,10a-tetrahydro-1H,5H-imidazo[1,2-a]pyrrolo[1,2-d]pyrazine-7-carboxamide]
EC50 [1]: > 10000 nM

Structure (SMILES): Cc1cc2n(n1)CC1(c3ccc(Cl)cc3)N(C(=O)NCCc3ccccc3)CCN1C2=O (centres unmarked) [Compound 41, 10a-(4-chlorophenyl)-7-methyl-5-oxo-N-(2-phenylethyl)-2,3,10,10a-tetrahydro-1H,5H-imidazo[1,2-a]pyrazolo[1,5-d]pyrazine-1-carboxamide]
EC50 [1]: > 10000 nM

Structure (SMILES): Cc1cc2n(n1)CC1(c3ccc(Cl)cc3)N(C(=O)c3ccc(F)cc3)CCN1C2=O (centres unmarked) [Compound 42]
EC50 [1]: > 10000 nM

Structure (SMILES): Cc1cc2n(n1)CC1(c3ccc(Cl)cc3)N(C(=O)c3ccoc3)CCN1C2=O (centres unmarked) [Compound 43]
EC50 [1]: 500 to 10000 nM
EC50 [2]: 3400 nM

Structure (SMILES): Cc1cc2n(n1)CC1(c3ccc(Cl)cc3)N(C(=O)c3cccnc3)CCN1C2=O (centres unmarked) [Compound 44]
EC50 [1]: > 10000 nM

Structure (SMILES): Cc1cc2n(n1)CC1(c3ccc(Cl)cc3)N(C(=O)c3ccc(F)nc3)CCN1C2=O (centres unmarked) [Compound 45]
EC50 [1]: > 10000 nM

Structure (SMILES): Cc1cc2n(n1)CC1(c3ccc(Cl)cc3)N(C(=O)NCc3ccccc3)CCN1C2=O (centres unmarked) [Compound 46]
EC50 [1]: > 10000 nM

Structure (SMILES): Cc1cc2n(n1)CC1(c3ccc(Cl)cc3)NCCN1C2=O (centres unmarked) [Compound 47]
EC50 [1]: > 10000 nM

Continued, values first:

EC50 [1]: 50 to 99 nM
EC50 [2]: 89 nM
Structure (SMILES): Cc1nocc1C(=O)N1CCN2C(=O)c3cccn3CC12c1ccc(OC(F)F)cc1 (centres unmarked) [Compound 1, 10a-[4-(difluoromethoxy)phenyl]-1-[(3-methyl-1,2-oxazol-4-yl)carbonyl]-2,3,10,10a-tetrahydro-1H,5H-imidazo[1,2-a]pyrrolo[1,2-d]pyrazin-5-one]

EC50 [1]: < 49 nM
EC50 [2]: 21 nM
Structure (SMILES): Cc1nocc1C(=O)N1CCN2C(=O)c3cccn3CC12c1ccc(F)cc1 (centres unmarked) [Compound 2]

EC50 [1]: 100 to 499 nM
EC50 [2]: 140 nM
Structure (SMILES): Cc1ocnc1C(=O)N1CCN2C(=O)c3cccn3CC12c1ccc(Cl)cc1 (centres unmarked) [Compound 3]

EC50 [1]: < 49 nM
EC50 [2]: 19 nM
Structure (SMILES): Cc1nocc1C(=O)N1CCN2C(=O)c3cccn3CC12c1ccc(Cl)cc1 (centres unmarked) [Compound 4]

EC50 [1]: < 49 nM
EC50 [2]: 34 nM
Structure (SMILES): Cc1nocc1C(=O)N1CCN2C(=O)c3cccn3CC12c1cccc(F)c1 (centres unmarked) [Compound 5]

EC50 [1]: 50 to 99 nM
EC50 [2]: 52 nM
Structure (SMILES): COc1ccc(C23Cn4cccc4C(=O)N2CCN3C(=O)c2conc2C)cc1 (centres unmarked) [Compound 6]

EC50 [1]: 100 to 499 nM
EC50 [2]: 410 nM
Structure (SMILES): O=C(c1cocn1)N1CCN2C(=O)c3cccn3CC12c1ccc(F)cc1 (centres unmarked) [Compound 7]

EC50 [1]: < 49 nM
EC50 [2]: 13 nM
Structure (SMILES): Cc1ccc(C23Cn4cccc4C(=O)N2CCN3C(=O)c2conc2C)cc1 (centres unmarked) [Compound 9]

EC50 [1]: 100 to 499 nM
EC50 [2]: 170 nM
Structure (SMILES): Cc1nocc1C(=O)N1CCN2C(=O)c3nccn3CC12c1ccc(Cl)cc1 (centres unmarked) [Compound 11]

EC50 [1]: 50 to 99 nM
EC50 [2]: 94 nM
Structure (SMILES): Cc1ccc(C23Cn4cccc4C(=O)N2CCN3C(=O)c2cnoc2C)cc1F (centres unmarked) [Compound 14]

EC50 [1]: 50 to 99 nM
EC50 [2]: 56 nM
Structure (SMILES): O=C(c1ccoc1)N1CCN2C(=O)c3cccn3CC12c1ccc(Cl)cc1 (centres unmarked) [Compound 15]

EC50 [1]: 50 to 99 nM
EC50 [2]: 65 nM
Structure (SMILES): Cc1nocc1C(=O)N1CCN2C(=O)c3cccn3CC12C1CCCCC1 (centres unmarked) [Compound 19]

EC50 [1]: < 49 nM
EC50 [2]: 2.2 nM
Structure (SMILES): Cc1nocc1C(=O)N1CCN2C(=O)c3ccc(Cl)n3CC12c1ccc(Cl)cc1 (centres unmarked) [Compound 22, 8-chloro-10a-(4-chlorophenyl)-1-[(3-methyl-1,2-oxazol-4-yl)carbonyl]-2,3,10,10a-tetrahydro-1H,5H-imidazo[1,2-a]pyrrolo[1,2-d]pyrazin-5-one]

EC50 [1]: < 49 nM
EC50 [2]: 8 nM
Structure (SMILES): COc1ccc(C23Cn4c(Cl)ccc4C(=O)N2CCN3C(=O)c2conc2C)cc1 (centres unmarked) [Compound 23]

EC50 [1]: 50 to 99 nM
EC50 [2]: 65 nM
Structure (SMILES): Cc1nocc1C(=O)N1CCN2C(=O)c3ccc(CN4CCOCC4)n3CC12c1ccc(Cl)cc1 (centres unmarked) [Compound 25, 10a-(4-chlorophenyl)-1-[(3-methyl-1,2-oxazol-4-yl)carbonyl]-8-(morpholin-4-ylmethyl)-2,3,10,10a-tetrahydro-1H,5H-imidazo[1,2-a]pyrrolo[1,2-d]pyrazin-5-one]

EC50 [1]: 50 to 99 nM
EC50 [2]: 88 nM
Structure (SMILES): Cc1nocc1C(=O)N1CCN2C(=O)c3ccc(CO)n3CC12c1ccc(Cl)cc1 (centres unmarked) [Compound 28]

EC50 [1]: < 49 nM
EC50 [2]: 36 nM
Structure (SMILES): Cc1nocc1C(=O)N1CCN2C(=O)c3cc(-c4cccnc4)cn3CC12c1ccc(Cl)cc1 (centres unmarked) [Compound 30, 10a-(4-chlorophenyl)-1-[(3-methyl-1,2-oxazol-4-yl)carbonyl]-7-(pyridin-3-yl)-2,3,10,10a-tetrahydro-1H,5H-imidazo[1,2-a]pyrrolo[1,2-d]pyrazin-5-one]

EC50 [1]: < 49 nM
EC50 [2]: 7.6 nM
Structure (SMILES): Cc1nocc1C(=O)N1CCN2C(=O)c3cc(-c4cnn(C)c4)cn3CC12c1ccc(Cl)cc1 (centres unmarked) [Compound 31]

EC50 [1]: 100 to 499 nM
EC50 [2]: 380 nM
Structure (SMILES): COc1ccc(C23Cn4c(ccc4-c4cnn(C)c4)C(=O)N2CCN3C(=O)c2conc2C)cc1 (centres unmarked) [Compound 34]

EC50 [1]: 50 to 99 nM
EC50 [2]: 54 nM
Structure (SMILES): Cc1nocc1C(=O)N1CCN2C(=O)c3cccn3CC12c1ccccc1 (centres unmarked) [Compound 35, 1-[(3-methyl-1,2-oxazol-4-yl)carbonyl]-10a-phenyl-2,3,10,10a-tetrahydro-1H,5H-imidazo[1,2-a]pyrrolo[1,2-d]pyrazin-5-one]

EC50 [1]: 100 to 499 nM
EC50 [2]: 480 nM
Structure (SMILES): Cc1nocc1C(=O)N1CCN2C(=O)c3cccn3CC12c1ccc(N2CCCC2)cc1 (centres unmarked) [Compound 36, 1-[(3-methyl-1,2-oxazol-4-yl)carbonyl]-10a-[4-(pyrrolidin-1-yl)phenyl]-2,3,10,10a-tetrahydro-1H,5H-imidazo[1,2-a]pyrrolo[1,2-d]pyrazin-5-one]

EC50 [1]: 100 to 499 nM
EC50 [2]: 120 nM
Structure (SMILES): Cc1nocc1C(=O)N1CCN2C(=O)c3cccn3CC12c1ccc(C#N)cc1 (centres unmarked) [Compound 37, 4-{1-[(3-methyl-1,2-oxazol-4-yl)carbonyl]-5-oxo-2,3-dihydro-1H,5H-imidazo[1,2-a]pyrrolo[1,2-d]pyrazin-10a(10H)-yl}benzonitrile]

EC50 [1]: < 49 nM
EC50 [2]: 15 nM
Structure (SMILES): Cc1nocc1C(=O)N1CCN2C(=O)c3cccc(=O)n3CC12c1ccc(Cl)cc1 (centres unmarked) [Compound 39, 11a-(4-chlorophenyl)-1-[(3-methyl-1,2-oxazol-4-yl)carbonyl]-2,3,11,11a-tetrahydro-1H-imidazo[1,2-a]pyrido[1,2-d]pyrazine-5,9-dione]

EC50 [1]: 100 to 499 nM
EC50 [2]: 210 nM
Structure (SMILES): Cc1oncc1C(=O)N1CCN2C(=O)c3cccc(=O)n3CC12c1ccc(Cl)cc1 (centres unmarked) [Compound 40]
